From patent US8324250B2 (Hoffmann-La Roche Inc., priority 2009, dated 2012)

Target: T1, recombinant human NK3 receptor (Homo sapiens, UniProt P29371)
T1 construct: expressed in transfected cells; host or cells: HEK293 cells (transient expression), membranes
T1 sequence (P29371 1-465): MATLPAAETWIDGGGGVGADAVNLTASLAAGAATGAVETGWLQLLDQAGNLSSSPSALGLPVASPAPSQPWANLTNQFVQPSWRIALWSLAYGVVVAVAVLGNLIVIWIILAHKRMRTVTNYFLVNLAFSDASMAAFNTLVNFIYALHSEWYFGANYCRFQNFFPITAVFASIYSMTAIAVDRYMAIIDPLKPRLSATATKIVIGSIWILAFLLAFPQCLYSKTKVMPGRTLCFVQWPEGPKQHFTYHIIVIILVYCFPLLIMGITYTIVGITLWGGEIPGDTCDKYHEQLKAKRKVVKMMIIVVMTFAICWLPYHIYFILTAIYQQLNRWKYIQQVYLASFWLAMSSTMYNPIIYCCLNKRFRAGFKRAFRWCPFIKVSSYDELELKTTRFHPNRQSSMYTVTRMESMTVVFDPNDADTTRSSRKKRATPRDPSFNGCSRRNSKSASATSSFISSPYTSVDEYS
Experiment: [3H]SR142801 competition binding assay
Details: membranes from HEK293 cells transiently expressing recombinant human NK3 receptor; [3H]SR142801 radioligand; 75 min at RT; Ki by Cheng-Prussoff; read-out: Data Ki (hNK-3 receptor affinity)
Protocol: [^3H]SR142801 Competition Binding Assay
hNK3 receptor binding experiment were performed using [^3H]SR142801 (Catalog No. TRK1035, specific activity: 74.0 Ci/mmol, Amersham, GE Healthcare UK limited, Buckinghamshire, UK) and membrane isolated from HEK293 cells transiently expressing recombinant human NK3 receptor. After thawing, the membrane homogenates were centrifuged at 48,000×g for 10 min at 4° C., the pellets were resuspended in the 50 mM Tris-HCl, 4 mM MnCl2, 1 μM phosphoramidon, 0.1% BSA binding buffer at pH 7.4 to a final assay concentration of 5 μg protein/well. […] At the end of the incubation, membranes were filtered onto unitfilter (96-well white microplate with bonded GF/C filter preincubated 1 h in 0.3% PEI+0.3% BSA, Packard BioScience, Meriden, Conn.) with a Filtermate 196 harvester (Packard BioScience) and washed 4 times with ice-cold 50 mM Tris-HCl, pH 7.4 buffer. Nonspecific binding was measured in the presence of 10 μM SB222200 for both radioligands. The radioactivity on the filter was counted (5 min) on a Packard Top-count microplate scintillation counter with quenching correction after addition of 45 μl of microscint 40 (Can berra Packard S. A., Zurich, Switzerland) and shaking for 1 h. Inhibition curves were fitted according to the Hill equation: y=100/(1+(x/IC50)^nH), where nH=slope factor using Excel-fit 4 software (Microsoft). IC50 values were derived from the inhibition curve and the affinity constant (Ki) values were calculated using the Cheng-Prussoff equation Ki═IC50/(1+[L]/KD) where [L] is the concentration of radioligand and KD is its dissociation constant at the receptor, derived from the saturation isotherm. All experiments were performed in duplicate and the mean±standard error (SEM) of the individual Ki values was calculated.

Structure (SMILES)	Ki [nM]
C[C@H](NC(=O)C1(c2ccccc2)CCN(C(=O)C2CCN(c3ccc(C#N)cn3)CC2)CC1)c1ccccc1 [Example 61, 1-(5′-Cyano-3,4,5,6-tetrahydro-2H-[1,2′]bipyrid-inyl-4-carbonyl)-4-phenyl-piperidine-4-carboxylic acid ((S)-1-phenyl-ethyl)-amide]	37.9
O=C(c1ccc(-c2ccc(F)cc2)cc1)N1CCC(C(=O)NC2(c3ccc(F)cc3)CC2)(c2ccc(F)cc2)CC1 [Example 135, 1-(4′-Fluoro-biphenyl-4-carbonyl)-4-(4-fluoro-phenyl)-piperidine-4-carboxylic acid [1-(4-fluoro-phenyl)-cyclopropyl]-amide]	26.7
C[C@H](NC(=O)C1(c2ccccc2)CCN(C(=O)c2ccc(N3CCN(C)CC3)cc2)CC1)c1ccccc1 [Example 14, 1-[4-(4-Methyl-piperazin-1-yl)-benzoyl]-4-phenyl-piperidine-4-carboxylic acid ((S)-l-phenyl-ethyl)-amide]	98.1
C[C@H](NC(=O)C1(c2ccc(F)cc2)CCN(C(=O)c2ccc(N3CCS(=O)(=O)CC3)cc2)CC1)c1ccc(F)cc1 [Example 1, 1-[4-(1,1-Dioxo-1λ^6-thiomorpholin-4-yl)-benzoyl]-4-(4-fluoro-phenyl)-piperidine-4-carboxylic acid [(S)-1-(4-fluoro-phenyl)-ethyl]-amide]	29.3
C[C@H](NC(=O)C1(c2ccccc2)CCN(C(=O)c2ccc(-c3ccc(N)cc3)cc2)CC1)c1ccccc1 [Example 64, 1-(4′-Amino-biphenyl-4-carbonyl)-4-phenyl-piperidine-4-carboxylic acid ((S)-1-phenyl-ethyl)-amide]	72.7
C[C@H](NC(=O)C1(c2ccccc2)CCN(C(=O)c2ccc(-c3ccccn3)cc2)CC1)c1ccccc1 [Example 6, 4-Phenyl-1-(4-pyridin-2-yl-benzoyl)-piperidine-4-carboxylic acid ((S)-1-phenyl-ethyl)-amide]	40.9
O=C(c1ccc(-c2ccc(F)cc2)cc1)N1CCC(C(=O)NC(c2ccccc2)C2CC2)(c2ccc(F)cc2)CC1 (centres unmarked) [Example 147, 1-(4′-Fluoro-biphenyl-4-carbonyl)-4-(4-fluoro-phenyl)-piperidine-4-carboxylic acid (cyclopropyl-phenyl-methyl)-amide]	17.6
Cc1noc(-c2ccc(C(=O)N3CCC(C(=O)N[C@@H](C)c4ccc(F)cc4)(c4ccccc4)CC3)cn2)n1 [Example 82, 1-[6-(3-Methyl-[1,2,4]oxa-diazol-5-yl)-pyridine-3-carbonyl]-4-phenyl-piperidine-4-carboxylic acid [(S)-1-(4-fluoro-phenyl)-ethyl]-amide]	5.3
Cc1noc(-c2ccc(C(=O)N3CCC(C(=O)N[C@@H](C)c4ccc(F)cc4)(C4CCCCC4)CC3)cc2)n1 [Example 109, 4-Cyclohexyl-1-[4-(3-methyl-[1,2,4]oxa-diazol-5-yl)-benzoyl]-piperidine-4-carboxylic acid [(S)-1-(4-fluoro-phenyl)-ethyl]-amide]	82
C[C@H](NC(=O)C1(c2ccc(F)cc2)CCN(C(=O)C2CCN(c3ccc(C#N)cn3)CC2)CC1)c1ccc(F)cc1 [Example 156, 1-(5′-Cyano-3,4,5,6-tetrahydro-2H-[1,2′]bipyridinyl-4-carbonyl)-4-(4-fluoro-phenyl)-piperidine-4-carboxylic acid [(S)-1-(4-fluoro-phenyl)-ethyl]-amide]	87
Cc1noc(-c2ccc(C(=O)N3CCC(C(=O)NC(C)(C)c4ccccc4)(c4ccccc4)CC3)cc2)n1 [Example 116, 1-[4-(3-Methyl-[1,2,4]oxadiazol-5-yl)-benzoyl]-4-phenyl-piperidine-4-carboxylic acid (1-methyl-1-phenyl-ethyl)-amide]	22.6
C[C@H](NC(=O)C1(c2ccccc2)CCN(C(=O)c2ccc(-c3ccccc3)cn2)CC1)c1ccccc1 [Example 38, 4-Phenyl-1-(5-phenyl-pyridine-2-carbonyl)-piperidine-4-carboxylic acid ((S)-1-phenyl-ethyl)-amide]	21.4
C[C@H](NC(=O)C1(c2ccccc2)CCN(C(=O)C2CCC(c3ccc(Cl)cc3)CC2)CC1)c1ccccc1 (stereo partly drawn) [Example 3, 1-[4-(4- Chlorophenyl)cyclohexanecarbonyl]-4-phenyl-piperidine-4-carboxylic acid ((S)-1-phenyl-ethyl)-amide]	48.2
Cc1noc(-c2ccc(C(=O)N3CCC(C(=O)N[C@@H](C)C4CCCCC4)(c4ccc(F)cc4)CC3)cc2)n1 [Example 90]	2.6
Cc1noc(-c2ccc(C(=O)N3CCC(C(=O)N[C@@H](C)c4ccccc4)(c4ccccc4)CC3)cc2)n1 [Example 43, 1-[4-(3-Methyl-[1,2,4]oxa-diazol-5-yl)-benzoyl]-4-phenyl-piperidine 4-carboxylic acid ((S)-1-phenyl-ethyl)-amide]	3.2

Next, values leading:

Ki [nM]	Structure (SMILES)
11	Cc1noc(-c2ccc(C(=O)N3CCC(C(=O)NC(c4ccc(F)cc4)C(C)C)(c4ccc(F)cc4)CC3)cc2)n1 (centres unmarked) [Example 158, 4-(4-Fluoro-phenyl)-1-[4-(3-methyl-[1,2,4]oxadiazol-5-yl)-benzoyl]-piperidine-4-carboxylic acid [1-(4-fluoro-phenyl)-2-methyl-propyl]-amide]
9	Cc1noc(C2CCN(C(=O)N3CCC(C(=O)N[C@@H](C)c4ccccc4)(c4ccccc4)CC3)CC2)n1 [Example 214, 1-[4-(3-Methyl-[1,2,4]oxadiazol-5-yl)-piperidine-1-carbonyl]-4-phenyl-piperidine-4-carboxylic acid ((S)-1-phenyl-ethyl)-amide]
77	O=C(N1CCN(c2ccc(F)cc2)CC1)N1CCC(C(=O)NC(c2ccc(F)cc2)C(F)(F)F)(c2ccc(F)cc2)CC1 (centres unmarked) [Example 176, 4-(4-Fluoro-phenyl)-1-[4-(4-fluoro-phenyl)-piperazine-1-carbonyl]-piperidine-4-carboxylic acid [2,2,2-trifluoro-1-(4-fluoro-phenyl)-ethyl]-amide]
24	O=C(N1CCN(c2ccc(F)cc2)CC1)N1CCC(C(=O)NC2(c3ccc(F)cc3)CC2)(c2ccc(F)cc2)CC1 [Example 174]
48	CC(C)C(NC(=O)C1(c2ccc(F)cc2)CCN(C(=O)N2CCN(c3ccc(F)cc3)CC2)CC1)c1ccc(F)cc1 (centres unmarked) [Example 175, 4-(4-Fluoro-phenyl)-1-[4-(4-fluoro-phenyl)-piperazine-1-carbonyl]-piperidine-4-carboxylic acid [1-(4-fluoro-phenyl)-2-methyl-propyl]-amide]
5.2	C[C@H](NC(=O)C1(c2ccccc2)CCN(C(=O)N2CCC(N3CCSCC3)CC2)CC1)c1ccccc1 [Example 218, 4-Phenyl-1-(4-thiomorpholin-4-yl-piperidine-1-carbonyl)-piperidine-4-carboxylic acid ((S)-1-phenyl-ethyl)-amide]
92	CCN(NC(=O)C1(c2ccc(F)cc2)CCN(C(=O)c2ccc(-c3nc(C)no3)cc2)CC1)c1ccc(F)cc1 [Example 160, 4-(4-Fluoro-phenyl)-1-[4-(3-methyl-[1,2,4]oxodiazol-5-yl)-benzoyl]-piperidine-4-carboxylic acid N′-ethyl-#N!′-(4-fluoro-phenyl)-hydrazide]
64.8	Cc1cccc(N2CCN(C(=O)N3CCC(C(=O)N[C@@H](C)c4ccccc4)(c4ccccc4)CC3)CC2)c1 [Example 226, 4-Phenyl-1-(4-m-tolyl-piperazine-1-carbonyl)-piperidine-4-carboxylic acid ((S)-1-phenyl-ethyl)-amide]
